Entries after “also recorded” stand apart in the source; their conditions may differ.
Columns and labels:
[1] = tested on: CH4 production in rumen fluid; experiment: CH4 production in in vitro rumen fluid incubations (dose-response and single-dose inhibition); format: cell-based, Holstein cattle; conditions: for Concentration range of the dose response: CH4 production vs inhibitor concentration, for bromomethane the extent of the range; for Concentration at which the sigmoidal concentration-inhibition relationship occurred: abstract; for Time after addition to reduced CH4 production: bromoform addition, vs control; for CH4 production relative to the no treatment control: concentrations > 2 µmol l^−1; for maximum value of CH4 production (dose-response fit) / minimum value of CH4 production (dose-response fit): cumulative CH4 over 240 min, 80 ml rumen fluid; for maximum value of CH4 production (dose-response fit) / minimum value of CH4 production (dose-response fit) / EC50 / coefficient b of log-logistic dose-response curve: ± standard error; for EC50: cumulative CH4 over 240 min vs initial concentration, read-out: ec-50, 50 % inhibition of CH4 production; for coefficient b of log-logistic dose-response curve: cumulative CH4 production over 240 min vs initial inhibitor concentration
Description: (§1) Animals used in this study were cared for according to the guidelines of William H. Miner Agricultural Research Institute (Chazy, NY) Animal Care and Use Committee. Rumen fluid was collected by cannulation from four healthy, lactating Holstein cattle maintained on the same diet for five weeks with approval from the William H. Miner Agricultural Research Institute (Chazy, NY) Animal Care and Use Committee and in compliance with SOP#106.
(§2) Donor cow profiles and dietary information can be found in supplemental information (Table S1 and Table S2). Rumen samples were strained through four layers of cheesecloth, placed on ice and shipped overnight to Bigelow Laboratory for Ocean Sciences at weekly intervals for three consecutive weeks. Upon arrival, the four samples were combined under anaerobic conditions. Sub-samples of the rumen fluid blend were flash-frozen in liquid nitrogen and stored at −20 °C for later analysis of initial pH, ammonia (NH3), and volatile fatty acids (VFAs). The rumen fluid blend was kept air-tight, on ice at 4 °C until used for experimental incubations within four days[34],[35].
(§3) This study utilized an in vitro technique of directly incubating rumen fluid for short-term experiments (< 6 h). The in vitro experiments were performed in accordance with guidelines reviewed in Yáñez-Ruiz et al.[36]. In order to investigate the response to and transformation of methanogenesis inhibitors, experiments included combinations of the following treatment groups: (i) biotic control (BC): live rumen fluid containing no inhibitors, (ii) biotic plus inhibitor (B+): live rumen fluid containing an inhibitor, (iii) abiotic control plus inhibitor (AC+): rumen fluid sterilized by autoclave (121 °C, 15 psi for 1 h) and containing an inhibitor. Prior to the incubation experiments, 80 ml aliquots of blended rumen fluid were added to 120 ml glass serum bottles and sealed with PTFE septa under anaerobic conditions (80% nitrogen, 15% carbon dioxide, 5% hydrogen). Experiments consisted of a series of 15 to 18 bottles of the same batch of refrigerated rumen fluid incubated in parallel. To revive the microbial activity at the start of each experiment, the incubation bottles, including the killed controls, were brought to 40 °C in a recirculating water bath within 15 min. The bottles thermally equilibrated for another 30 min before the experiment was initiated. The experiment was initiated after headspace sampling (T0) and the designated treatment was added. The incubation proceeded for ~ 4–6 h at 40 °C.
(§4) Two experimental designs were run: i) compound tracing experiments, to investigate the lifetime and transformation of inhibitors; and ii) dose-response experiments, to determine the sensitivity of methanogenesis to inhibitors (Fig. 1). Dose-response experiments included biotic controls (BC), and a series of nine biotic plus inhibitor treatments (B+) across a range of concentrations (0 to 25 µM) containing the specific inhibitor (bromoform (Sigma-Aldrich 99%), dibromomethane (Sigma-Aldrich 99%), bromomethane (Supelco TraceCERT®), or Asparagopsis taxiformis. The A. taxiformis was collected fresh from a marine site in the subtropical Atlantic (27° 59’ 19”, −15° 22’ 12”) and stored frozen at −20 °C. The sample material contained 0.33 ± 0.02 mg bromoform g^−1 dry weight.
(§5) Tracing experiment treatments included biotic controls (BC), biotic plus inhibitors (B+), and abiotic plus inhibitors (AC+) of a single concentration of the target compound, each in triplicate. Target compounds bromoform, dibromomethane, and bromomethane, were injected through the septa as solutions in methanol (VWR 99.9%). The corresponding levels of methanol, which ranged from 30 to 950 µl, were added to the control treatments, depending on the desired inhibitor concentration. The A. taxiformis was cut into fine pieces, homogenized, pre-weighed into PTFE capsules and placed in the incubation bottles prior to incubation. […]

[2] = Compound tracing incubation in autoclaved rumen fluid (abiotic control plus inhibitor, AC+); format: in vitro ADME, Holstein cattle
Description: as §1, §2, §3, §4, §5

[3] = Loss to headspace volume estimated from Henry's Law solubility constants; format: physicochemical; conditions: based on Henry's Law solubility constants, during the incubations
Experimental: Based on the Henry’s Law solubility constants for bromoform and dibromomethane, loss to the headspace volume during the incubations would have amounted to < 5% of the dissolved pool of either compound and therefore, had minimal influence on estimated loss and turnover rates. In contrast, approximately 40% of any bromomethane produced during the tracing experiments may have been lost to the headspace gas sampling and may have contributed to the lack of evidence of bromomethane production.

[4] = Compound tracing incubation in live rumen fluid (biotic plus inhibitor, B+); format: in vitro ADME, Holstein cattle; conditions: for Rate constant, biological loss: difference between total loss (B+) and abiotic loss (AC+); for ½ life, biological loss: from difference of B+ and AC+ rates; for ½ life, loss (total, biotic incubation) / Rate constant, loss (total, biotic incubation): live rumen fluid B+, 40 °C; for Rate constant, loss (total, biotic incubation): compound added alone
Description: as §1, §2, §3, §4, §5

[5] = set-up: method as in earlier work; conditions: incubation times up to 72 h; ref 33 Romero et al.; cited from earlier work
[6] = bromoform-amended autoclaved rumen fluid (Exp1)
[7] = bromoform-amended live rumen fluid (Exp1)

Structure (SMILES) | Concentration range of the dose response [1] | Concentration at which the sigmoidal concentration-inhibition relationship occurred [1] | CH4 production relative to the no treatment control [1] | maximum value of CH4 production (dose-response fit) [1] | minimum value of CH4 production (dose-response fit) [1] | EC50 [1] | coefficient b of log-logistic dose-response curve [1] | ½ life, abiotic loss ([2]; autoclaved rumen fluid AC+) | Loss to the headspace volume, share of the dissolved pool / of compound produced [3] | Rate constant, biological loss [4] | ½ life, biological loss [4] | ½ life, loss (total, biotic incubation) [4] | Rate constant, loss (total, biotic incubation) [4] | other results
BrC(Br)Br [bromoform] | 1 to 2 µmol/L | 1 to 2 µM | < 20% | 681 ± 14 µmol | 98 ± 16 µmol | 1370 ± 30 nM | 5.98 ± 0.76 | 102 min | < 5% | -19.6 ± 1.2 x 10^-3min^-1 | 35 min | ~ 26 min | -26.4 ± 1.3 x 10^-3min^-1 | Inhibition threshold for CH4 production [1]: ~ 1 µmol l^−1; CH4 inhibition vs biotic control ([1]; bromoform 3 µmol l^−1, after 260 min (Exp 4)): 78%; Time after addition to reduced CH4 production [1]: < 60 min; Time after addition to reduced CH4 production ([1]; listed as CHBr3): ≤ 60 min; Inhibition of CH4 production ([1]; total bromoform addition of 3 µmol l^−1, ~300 min (Exp 3)): > 75%; Rate constant, abiotic loss ([2]; autoclaved rumen fluid AC+, 40 °C): -6.8 ± 0.3 x 10^-3min^-1; Loss rate in live rumen fluid relative to autoclaved control ([4]; B+ vs AC+): more than 3 fold; ½ life, loss (total, biotic incubation) ([4]; listed as Bromoform): 26 min
CBr [bromomethane] |  |  |  | 616 ± 6 µmol | 182 ± 7 µmol | 5340 ± 140 nM | 3.09 ± 0.24 |  | approximately 40% |  |  |  |  | Concentration required to achieve a maximal inhibitory effect ([1]; CH4 production dose response (Exp7)): > 20 µmol/L; EC50 relative to bromoform and dibromomethane ([1]; higher): ~5 fold; Production of bromomethane in incubations ([4]; tracing incubations, limit of detection 8 nmol l^−1): no bromomethane was detected; also recorded: not detected; also recorded: no detectable bromomethane production
BrCBr [dibromomethane] | 1 to 2 µmol/L | 1 to 2 µM | < 20% | 763 ± 16 µmol | 146 ± 8 µmol | 1360 ± 30 nM | 7.46 ± 0.92 | 10200 min | < 5% | -0.826 ± 0.113 x 10^-3min^-1 | 839 min | 775 min | -0.894 ± 0.091 x 10^-3min^-1 | Dibromomethane as % of the maximum bromoform concentrations, abiotic ([2]; AC + A.tax (Exp 4)): 1.3%; Dibromomethane at the end of the incubation after A. taxiformis addition, abiotic ([2]; AC + A.tax (Exp 4)): 0.030 ± 0.001 µmol/L; Dibromomethane abiotic production rate [2, 6]: 0.0014 ± 0.0001 µmol/L/min; Yield of dibromomethane, % of the initial bromoform added, abiotic [2, 6]: 3.4%; Yield of dibromomethane, % of the initial bromoform added, abiotic ([2]; bromoform-amended autoclaved rumen fluid (Exp1), listed as Dibromomethane): 3.4%; Dibromomethane produced as proportion of the degraded bromoform [5]: 20 to 40%; Peak dibromomethane as % of the highest observed bromoform, biotic ([4]; B + A.tax (Exp 4)): 22.0%; Peak level of dibromomethane after A. taxiformis addition, biotic ([4]; B + A.tax (Exp 4)): 0.076 ± 0.006 µmol/L; Dibromomethane production rate [4, 7]: 0.0353 ± 0.0024 µmol/L/min; Yield of dibromomethane, % of the initial bromoform added [4, 7]: 22.1%; Biotic loss slower than the loss of bromoform ([4]; dibromomethane vs bromoform, biotic): ~30 fold

From paper PMC12254416, “The antimethanogenic efficacy and fate of bromoform and its transformation products in rumen fluid” (Scientific Reports, 2025)
